# Legend:
# [1] = biological target: T1, BmrA full-length (Bacillus subtilis, UniProt O06967); assay: HDX-MS (also fluorescence transport assay in inside-out vesicles); format: binding; details: 100 μM doxorubicin, nanodiscs, pD 8.0, 20 °C
# T1 construct: full-length half transporter, C-terminal His6 tag, E. coli C41(DE3); homodimer in DDM/cholate, MSP1E3D1 nanodiscs or inside-out vesicles
# [2] = biological target: T2, BmrA NBD (Bacillus subtilis, UniProt O06967); assay: dissociation constant (method not stated in main text); format: binding; details: read-out: KD, ADP
# T2 sequence (O06967 331-589): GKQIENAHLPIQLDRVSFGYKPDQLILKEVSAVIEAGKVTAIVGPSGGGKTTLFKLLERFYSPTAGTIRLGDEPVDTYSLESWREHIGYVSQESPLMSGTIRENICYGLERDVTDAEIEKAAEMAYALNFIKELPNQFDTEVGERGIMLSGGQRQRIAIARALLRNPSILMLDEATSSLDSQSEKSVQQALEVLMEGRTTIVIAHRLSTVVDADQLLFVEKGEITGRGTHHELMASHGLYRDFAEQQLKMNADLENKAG
# [3] = biological target: LmrA NBD (Lactococcus cremoris, UniProt P97046); assay: 1H, […]-HSQC NMR chemical shift perturbation; format: binding; details: 50 mM BisTris pH 7, 50 mM NaCl, 298 K
# LmrA NBD, sequence (P97046 330-590): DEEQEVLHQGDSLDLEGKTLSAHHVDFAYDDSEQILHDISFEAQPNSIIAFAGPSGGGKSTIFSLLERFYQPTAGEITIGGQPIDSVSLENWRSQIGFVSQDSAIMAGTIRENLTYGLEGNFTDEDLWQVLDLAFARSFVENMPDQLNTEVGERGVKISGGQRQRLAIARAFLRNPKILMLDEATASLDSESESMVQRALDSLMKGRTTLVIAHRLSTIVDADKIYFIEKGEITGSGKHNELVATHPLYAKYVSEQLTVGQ
# [4] = biological target: BmrA NBD (Bacillus subtilis, UniProt O06967, K380A); assay: biochemical
# BmrA NBD (Bacillus subtilis, UniProt O06967, K380A), sequence (O06967 331-589 K380A): as the sequence (O06967 331-589) above, with K50A counted along it
# [5] = biological target: BmrA NBD (Bacillus subtilis, UniProt O06967, R389M); assay: biochemical
# BmrA NBD (Bacillus subtilis, UniProt O06967, R389M), sequence (O06967 331-589 R389M): as the sequence (O06967 331-589) above, with R59M counted along it
# [6] = biological target: MsbA NBD (Escherichia coli, UniProt P60752); assay: 1H, […]-HSQC NMR chemical shift perturbation; format: binding; details: 50 mM BisTris pH 7, 50 mM NaCl, 298 K
# MsbA NBD, sequence (P60752 323-582): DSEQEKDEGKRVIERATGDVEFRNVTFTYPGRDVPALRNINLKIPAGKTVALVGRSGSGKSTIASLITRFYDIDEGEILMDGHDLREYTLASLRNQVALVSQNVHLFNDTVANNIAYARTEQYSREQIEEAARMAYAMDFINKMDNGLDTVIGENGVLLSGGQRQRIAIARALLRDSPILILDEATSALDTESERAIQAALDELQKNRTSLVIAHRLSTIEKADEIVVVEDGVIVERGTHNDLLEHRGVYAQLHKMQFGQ
# [7] = biological target: BmrA NBD (Bacillus subtilis, UniProt O06967, R389K); assay: biochemical
# BmrA NBD (Bacillus subtilis, UniProt O06967, R389K), sequence (O06967 331-589 R389K): as the sequence (O06967 331-589) above, with R59K counted along it
# [8] = biological target: BmrA NBD (Bacillus subtilis, UniProt O06967, W413F); assay: biochemical
# BmrA NBD (Bacillus subtilis, UniProt O06967, W413F), sequence (O06967 331-589 W413F): as the sequence (O06967 331-589) above, with W83F counted along it
# [9] = biological target: BmrA NBD (Bacillus subtilis, UniProt O06967, R414A); assay: biochemical
# BmrA NBD (Bacillus subtilis, UniProt O06967, R414A), sequence (O06967 331-589 R414A): as the sequence (O06967 331-589) above, with R84A counted along it
# [10] = biological target: BmrA NBD (Bacillus subtilis, UniProt O06967, R414K); assay: biochemical
# BmrA NBD (Bacillus subtilis, UniProt O06967, R414K), sequence (O06967 331-589 R414K): as the sequence (O06967 331-589) above, with R84K counted along it
# [11] = biological target: T1, BmrA full-length; assay: […] NMR of 5-fluorotryptophan-labelled protein (W413 line broadening); format: binding; details: 15 mM reserpine, MSP1E3D1 nanodiscs, E. coli polar lipids, 298 K
# [12] = biological target: T2, BmrA NBD; assay: 1H, […]-HSQC NMR chemical shift perturbation; format: binding; details: 10 mM ATP, 50 mM BisTris pH 7, 50 mM NaCl, 298 K
# [13] = biological target: T1, BmrA full-length; assay: ATPase assay coupled to NADH oxidation (also […] NMR); format: biochemical; details: 10 mM MgCl2, pH 8, 37 °C; detergent, nanodiscs or liposomes
# T1 sequence (O06967 whole entry): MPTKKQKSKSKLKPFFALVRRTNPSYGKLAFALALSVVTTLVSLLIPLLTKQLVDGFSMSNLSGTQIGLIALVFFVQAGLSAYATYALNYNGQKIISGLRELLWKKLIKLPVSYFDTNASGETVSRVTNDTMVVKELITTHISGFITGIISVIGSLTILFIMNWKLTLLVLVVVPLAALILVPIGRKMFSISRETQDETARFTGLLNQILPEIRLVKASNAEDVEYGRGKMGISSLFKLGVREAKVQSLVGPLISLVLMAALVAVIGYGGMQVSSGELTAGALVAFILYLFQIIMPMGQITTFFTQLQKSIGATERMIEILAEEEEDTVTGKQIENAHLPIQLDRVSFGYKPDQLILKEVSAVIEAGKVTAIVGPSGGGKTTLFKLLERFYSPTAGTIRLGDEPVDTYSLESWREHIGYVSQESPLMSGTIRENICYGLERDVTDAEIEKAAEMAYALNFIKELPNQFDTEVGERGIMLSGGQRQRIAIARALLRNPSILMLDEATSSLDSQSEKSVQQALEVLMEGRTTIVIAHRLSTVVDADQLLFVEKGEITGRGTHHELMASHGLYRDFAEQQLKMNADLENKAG
smiles,measurement,setting,value
COc1cccc2c1C(=O)c1c(O)c3c(c(O)c1C2=O)C[C@@](O)(C(=O)CO)C[C@@H]3O[C@H]1C[C@H](N)[C@H](O)[C@H](C)O1 [doxorubicin],HDX-MS (also fluorescence transport assay in inside-out vesicles),[1],in the absence and presence of doxorubicin showed decreased exchange in the TMD
Nc1ncnc2c1ncn2[C@@H]1O[C@H](COP(=O)(O)OP(=O)(O)O)[C@@H](O)[C@H]1O [ADP],Kd,[2],214 ± 43 µM
same,"1H,15N-HSQC NMR chemical shift perturbation",[3]; 10 mM ADP,"(BmrA W413, LmrA W421, MsbA L415) responded to the addition of ATP or ADP"
same,Kd,[4],14.4 ± 3.7 mM
same,Kd,[5],2.89 ± 1.46 mM
same,"1H,15N-HSQC NMR chemical shift perturbation",[6]; 10 mM ADP,"(BmrA W413, LmrA W421, MsbA L415) responded to the addition of ATP or ADP"
same,Kd,[7],221 ± 105 µM
same,Kd,[8],221 ± 54 µM
same,Kd,[9],575 ± 43.5 µM
same,Kd,[10],266 ± 97 µM
COC(=O)[C@H]1[C@H]2C[C@@H]3c4[nH]c5cc(OC)ccc5c4CCN3C[C@H]2C[C@@H](OC(=O)c2cc(OC)c(OC)c(OC)c2)[C@@H]1OC [reserpine],19F NMR of 5-fluorotryptophan-labelled protein (W413 line broadening),[11],Addition of ATP or the substrate reserpine resulted in changes in chemical shift and linewidths
Nc1ncnc2c1ncn2[C@@H]1O[C@H](COP(=O)(O)OP(=O)(O)OP(=O)(O)O)[C@@H](O)[C@H]1O [ATP],"1H,15N-HSQC NMR chemical shift perturbation",[12],"(BmrA W413, LmrA W421, MsbA L415) responded to the addition of ATP or ADP"
same,"1H,15N-HSQC NMR chemical shift perturbation",[3]; 10 mM ATP,"(BmrA W413, LmrA W421, MsbA L415) responded to the addition of ATP or ADP"
same,"1H,15N-HSQC NMR chemical shift perturbation",[6]; 10 mM ATP,"(BmrA W413, LmrA W421, MsbA L415) responded to the addition of ATP or ADP"
same,ATPase assay coupled to NADH oxidation (also 19F NMR),[13],"ATPase activity of purified BmrA full-length WT, K380A and hinge mutant constructs was determined"

# Source: paper PMC12606247, “Bidirectional communication between nucleotide and substrate binding sites in a type IV multidrug ABC transporter” (Nature Communications, 2025)
